Laboratory results: patent US8034787B2, “Enzyme-cleavable prodrug compounds” (Medarex, Inc., priority 1998, dated 2011)
Square brackets hold non-standard residues; d marks the D form. Peptide text beside a SMILES is read from it. * marks the point of attachment. Mcc = 7-methoxycoumarin-3-carboxyl, COc1ccc2cc(C(=O)*)c(=O)oc2c1; Sta = CC(C)C[C@H](N)[C@@H](O)CC(=O)O; Isovaleryl = CC(C)CC(=O)*

Tests used:
HeLa cell trouase (F1) = molecular target: T1, HeLa cell trouase (F1) (Homo sapiens, UniProt P52888); assay: Rates of hydrolysis by partially purified HeLa cell trouase (F1); format: biochemical; conditions: 10 μg/mL substrate, pH 7.2 10 mM HEPES, 100 μM MnCl2, 37° C.; Suc-βAla-Leu-Ala-Leu-Dox = 1.0
T1 construct: The fractions containing the highest activity levels were pooled (fractions #43-46); host or cells: HeLa
T1 sequence (P52888 whole entry): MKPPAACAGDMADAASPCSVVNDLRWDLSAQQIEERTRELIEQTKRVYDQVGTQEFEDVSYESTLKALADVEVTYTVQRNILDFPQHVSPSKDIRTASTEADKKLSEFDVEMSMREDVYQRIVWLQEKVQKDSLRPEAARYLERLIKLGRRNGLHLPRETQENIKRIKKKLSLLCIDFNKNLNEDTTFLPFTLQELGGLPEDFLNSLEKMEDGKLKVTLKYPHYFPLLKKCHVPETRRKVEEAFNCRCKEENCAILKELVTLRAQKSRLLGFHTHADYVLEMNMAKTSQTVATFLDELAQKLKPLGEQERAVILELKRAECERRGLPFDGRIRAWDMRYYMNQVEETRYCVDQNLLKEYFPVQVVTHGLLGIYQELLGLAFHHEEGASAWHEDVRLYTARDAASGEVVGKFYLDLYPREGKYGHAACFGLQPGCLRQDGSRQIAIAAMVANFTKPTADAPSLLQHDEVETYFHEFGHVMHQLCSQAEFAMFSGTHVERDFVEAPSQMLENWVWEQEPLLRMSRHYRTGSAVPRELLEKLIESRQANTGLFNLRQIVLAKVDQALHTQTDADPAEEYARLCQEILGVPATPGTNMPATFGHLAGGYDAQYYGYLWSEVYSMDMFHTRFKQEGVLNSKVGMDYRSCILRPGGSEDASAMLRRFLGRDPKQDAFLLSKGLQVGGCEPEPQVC

[1] = molecular target: T2, recombinant rat TOP (rRTOP) (Rattus norvegicus, UniProt P24155); assay: Rates of hydrolysis by recombinant rat TOP; format: biochemical; conditions: for Rate of hydrolysis TOP: 10 μg/mL substrate, pH 7.2 10 mM HEPES, 100 μM MnCl2, 37° C., Suc-βAla-Leu-Ala-Leu-Dox = 1.0
T2 construct: made in house; host or cells: E. coli
T2 sequence (P24155 whole entry): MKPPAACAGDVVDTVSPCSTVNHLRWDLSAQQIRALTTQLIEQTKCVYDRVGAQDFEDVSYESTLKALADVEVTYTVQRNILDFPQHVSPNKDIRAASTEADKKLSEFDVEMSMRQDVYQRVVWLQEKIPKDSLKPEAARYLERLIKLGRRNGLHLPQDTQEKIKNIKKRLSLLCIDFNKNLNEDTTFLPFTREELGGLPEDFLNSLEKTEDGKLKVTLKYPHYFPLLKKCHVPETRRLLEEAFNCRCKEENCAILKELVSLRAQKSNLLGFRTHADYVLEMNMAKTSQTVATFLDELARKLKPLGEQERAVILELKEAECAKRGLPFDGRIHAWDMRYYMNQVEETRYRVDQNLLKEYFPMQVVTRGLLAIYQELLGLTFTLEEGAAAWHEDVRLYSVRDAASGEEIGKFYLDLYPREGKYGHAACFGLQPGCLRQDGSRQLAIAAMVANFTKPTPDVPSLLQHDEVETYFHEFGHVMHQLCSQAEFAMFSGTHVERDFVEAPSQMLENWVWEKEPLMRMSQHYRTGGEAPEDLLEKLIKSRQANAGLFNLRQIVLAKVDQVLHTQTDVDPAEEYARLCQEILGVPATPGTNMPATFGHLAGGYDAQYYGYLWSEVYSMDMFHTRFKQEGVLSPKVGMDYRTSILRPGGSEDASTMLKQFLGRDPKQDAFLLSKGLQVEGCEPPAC

[2] = molecular target: T3, MCF-7/6 cell homogenate trouase (Homo sapiens, UniProt P52888); assay: Inhibition of MCF-7/6 cell homogenate trouase activity; format: biochemical
T3 construct: the cells (approximately 300 μL wet) were homogenized by grinding in 1.7 mL 10 mM pH 7.2 HEPES buffer; endogenous in cells; host or cells: MCF-7/6 (breast carcinoma)
T3 sequence (P52888 whole entry): as the sequence (P52888 whole entry) above

HL-60 cells = assay: 3H-thymidine incorporation proliferation assay; format: cell-based; conditions: 24 hours
Method: Promyelocytic leukemia cells, HL-60, were cultured in RPMI media containing 10% heat inactivated fetal calf serum (FCS). On the day of the study, the cells were collected, washed and resuspended at a concentration of 0.5×10^6 cells/ml in RPMI containing 10% FCS. 100 μl/well of cell suspension was added to 96 well plates. […] Finally, 10 μl of a 100 μCi/ml ^3H-thymidine was added per well and the plates were incubated for 24 hours. The plates were harvested using a 96 well Harvester (Packard Instruments) and counted on a Packard Top Count counter. Four parameter logistic curves were fitted to the ^3H-thymidine incorporation as a function of drug molarity using Prism software to determine IC50 values.

[3] = molecular target: T4, MCF-7/6 cell conditioned media trouase (Homo sapiens, UniProt P52888); assay: Thiol activation of MCF-7/6 conditioned medium; format: biochemical; conditions: 1 mM DTT, 30 minutes pre-incubation
T4 construct: MCF-7/6 conditioned medium was pre-incubated for 30 minutes at room temperature with dithiothreitol (DTT); endogenous in cells; host or cells: MCF-7/6 conditioned medium
T4 sequence (P52888 whole entry): as above

[4] = Acute toxicity of N-capped prodrugs, intravenous bolus in mice; format: in vivo; conditions: intravenous bolus of 250 mg/kg (Dox-HCl eq.), three to five mice per group
MCF 7/6 cell homogenate = assay: Extent of cleavage by cell homogenate (Example 14); format: biochemical, human; conditions: 12.5 μg/mL, 2 hr, 37° C.
[5] = molecular target: T5, partially purified trouase preparation (Homo sapiens, UniProt P52888); assay: Extent of cleavage by partially purified trouase preparation (Example 14); format: biochemical; conditions: 12.5 μg/mL, 2 hr, 37° C.
T5 construct: The fractions containing the highest activity levels were pooled (fractions #43-46); host or cells: HeLa
T5 sequence (P52888 whole entry): as above

Porcine Kidney CD10 = assay: Hydrolysis by purified CD10; format: biochemical; conditions: 12.5 μg/mL, 37° C., pH 7.4, 10 hr
[6] = molecular target: T6, HeLa cell Fraction 1 trouase (Homo sapiens, UniProt P52888); assay: Inhibition of Suc-βAla-Leu-Ala-Leu-Dox hydrolysis by HeLa cell Fraction 1; format: biochemical; conditions: 3 μM
T6 construct: The fractions containing the highest activity levels were pooled (fractions #43-46); host or cells: HeLa
T6 sequence (P52888 whole entry): as above

COc1cccc2c1C(=O)c1c(O)c3c(c(O)c1C2=O)C[C@@](O)(C(=O)CO)C[C@@H]3O[C@H]1C[C@H](NC(=O)[C@H](CC(C)C)NC(=O)[C@H](C)NC(=O)[C@H](CCSC)NC(=O)CCC(=O)O)[C@H](O)[C@H](C)O1 [Suc-Met-Ala-Leu-Dox]
Rate of hydrolysis (F1) (HeLa cell trouase (F1)): 0.49
Rate of hydrolysis TOP [1]: 0.99

COc1cccc2c1C(=O)c1c(O)c3c(c(O)c1C2=O)CC(O)(C(=O)CO)CC3OC1CC(NC(=O)CNC(=O)C(C)NC(=O)C(CC(C)C)NC(=O)CCNC(=O)CCC(=O)O)C(O)C(C)O1 (stereo not drawn) [Suc-βAla-Leu-Ala-Gly-Dox]
cleavage by TOP [1]: well cleaved

CC(C)C[C@H](NC(=O)[C@H]1O[C@@H]1C(=O)O)C(=O)NCCCCN=C(N)N [E-64]
trouase activity inhibition ([2]; 20 μM E-64): not inhibited

COc1cccc2c1C(=O)c1c(O)c3c(c(O)c1C2=O)CC(O)(C(=O)CO)CC3OC1CC(NC(=O)C(C)NC(=O)C(C)NC(=O)C(CC(C)C)NC(=O)CCNC(=O)CCC(=O)O)C(O)C(C)O1 (stereo not drawn) [Suc-βAla-Leu-Ala-Ala-Dox]
cleavage by TOP (presumed) [1]: well cleaved

CCC(C)C(NC(=O)CCC(=O)O)C(=O)N(C)C(C)C(=O)NC(CC(C)C)C(=O)NC1CC(OC2CC(O)(C(=O)CO)Cc3c(O)c4c(c(O)c32)C(=O)c2c(OC)cccc2C4=O)OC(C)C1O (stereo not drawn) [Suc-Ile-NmAla-Leu-Dox]
Rate of hydrolysis (F1) (HeLa cell trouase (F1)): 0
Rate of hydrolysis TOP [1]: 0

COc1cccc2c1C(=O)c1c(O)c3c(c(O)c1C2=O)C[C@@](O)(C(=O)CO)C[C@@H]3O[C@H]1C[C@H](NC(=O)[C@@H](N)CC(C)C)[C@H](O)[C@H](C)O1 [Leucyl-Doxorubicin]
IC50 (HL-60 cells): 0.222 µM

CO[C@@H]1[C@H](OC(=O)/C=C/C=C/C=C/C=C/C(=O)O)CC[C@]2(CO2)[C@H]1[C@@]1(C)O[C@@H]1CC=C(C)C [fumagillin]
carcinoma cell trouase inhibition ([2]; concentration not given): not

O[C@H](CS)[C@H](O)CS (racemic) [DTT, dithiothreitol]
activation of Suc-βAla-Leu-Ala-Leu-Dox hydrolysis [3]: tenfold activation

COc1cccc2c1C(=O)c1c(O)c3c(c(O)c1C2=O)C[C@@](O)(C(=O)CO)C[C@@H]3O[C@H]1C[C@H](NC(=O)[C@H](CC(C)C)NC(=O)[C@H](C)NC(=O)[C@H](CC(C)C)NC(=O)CCNC(=O)CCCC(=O)O)[C@H](O)[C@H](C)O1 [Gl-βAla-Leu-Ala-Leu-Dox]
survival up to 8 days [4]: all animals survived

CCCNC(=O)[C@H]1O[C@@H]1C(=O)N[C@H](C(=O)N1CCC[C@H]1C(=O)O)[C@@H](C)CC [CA-074]
trouase activity inhibition ([2]; 1 μM): not inhibited

COc1cccc2c1C(=O)c1c(O)c3c(c(O)c1C2=O)CC(O)(C(C)=O)CC3OC1CC(NC(=O)C(CC(C)C)NC(=O)C(C)NC(=O)C(CC(C)C)NC(=O)C(C)NC(=O)CCC(=O)O)C(O)C(C)O1 (stereo not drawn) [Suc-Ala-Leu-Ala-Leu-Dnr]
extent (rate) of cleavage versus the P2 β-alanine compound (MCF 7/6 cell homogenate): 1.3 fold
extent of cleavage versus the P2 β-alanine compound [5]: 0.6 fold

CC(C)CC(=O)N[C@H](C(=O)N[C@H](C(=O)N[C@@H](CC(C)C)[C@@H](O)CC(=O)N[C@@H](C)C(=O)N[C@@H](CC(C)C)[C@@H](O)CC(=O)O)C(C)C)C(C)C [pepstatin] (Isovaleryl-VV[Sta]A[Sta]-OH)
trouase activity inhibition ([2]; 1.5 μM): not inhibited

Mcc-Pro-Leu-Gly-Pro-D-Lys(DNP) (Mcc-PLGP-{dK(DNP)}) [quenched fluorescent substrate; Mcc = 7-Methoxycoumarin-3-carboxyl, DNP dinitrophenyl, reference compound]
Rate of hydrolysis (F1) (HeLa cell trouase (F1)): 1.5
Rate of hydrolysis TOP [1]: 1.1

CC[C@H](C)[C@H](NC(=O)CCNC(=O)CCC(=O)O)C(=O)N[C@@H](C)C(=O)N[C@@H](CC(C)C)C(=O)N[C@H]1C[C@H](O[C@H]2C[C@](O)(C(=O)CO)Cc3c(O)c4c(c(O)c32)C(=O)c2c(OC)cccc2C4=O)O[C@@H](C)[C@H]1O [Suc-βAla-Ile-Ala-Leu-Dox]
Rate of hydrolysis (F1) (HeLa cell trouase (F1)): 0.025
Rate of hydrolysis TOP [1]: <0.03

COc1cccc2c1C(=O)c1c(O)c3c(c(O)c1C2=O)CC(O)(C(=O)CO)CC3OC1CC(NC(=O)C(CC(C)C)NC(=O)C(C)N(C)C(=O)C(CC(C)C)NC(=O)CCC(=O)O)C(O)C(C)O1 (stereo not drawn) [Suc-Leu-NmAla-Leu-Dox]
Rate of hydrolysis (F1) (HeLa cell trouase (F1)): 0
Rate of hydrolysis TOP [1]: 0

COc1cccc2c1C(=O)c1c(O)c3c(c(O)c1C2=O)CC(O)(C(=O)CO)CC3OC1CC(NC(=O)C(CC(C)C)NC(=O)C(Cc2ccc(O)cc2)NC(=O)C(CC(C)C)NC(=O)CCNC(=O)CCC(=O)O)C(O)C(C)O1 (stereo not drawn) [Suc-βAla-Leu-Tyr-Leu-Dox]
% hydrolysis/10 hr (Porcine Kidney CD10): 0%
Fraction hydrolyzed relative to standard (Porcine Kidney CD10): 0

c1cnc2c(c1)ccc1cccnc12 [1,10 phenanthroline]
trouase activity inhibition ([2]; 2 mM 1,10 phenanthroline): 9 fold

aprotinin
trouase activity inhibition ([2]; 4 μg/mL): not inhibited

COc1cccc2c1C(=O)c1c(O)c3c(c(O)c1C2=O)C[C@@](O)(C(=O)CO)C[C@@H]3O[C@H]1C[C@H](NC(=O)[C@H](CC(C)C)NC(=O)[C@H](C)NC(=O)[C@H](CC(C)C)NC(=O)CCC(=O)O)[C@H](O)[C@H](C)O1 [Suc-Leu-Ala-Leu-Dox]
Rate of hydrolysis (F1) (HeLa cell trouase (F1)): 0.78
Rate of hydrolysis TOP [1]: 0.67

CC(=O)N[C@@H](CC(C)C)C(=O)N[C@@H](CC(C)C)C(=O)N[C@H](C=O)CCCNC(=N)N [leupeptin]
trouase activity inhibition ([2]; 20 μM leupeptin): not inhibited

COc1cccc2c1C(=O)c1c(O)c3c(c(O)c1C2=O)C[C@@](O)(C(=O)CO)C[C@@H]3O[C@H]1C[C@H](NC(=O)CNC(=O)[C@H](C)NC(=O)[C@H](CC(C)C)NC(=O)CCC(=O)O)[C@H](O)[C@H](C)O1 [Suc-Leu-Ala-Gly-Dox]
Rate of hydrolysis (F1) (HeLa cell trouase (F1)): 0.4
Rate of hydrolysis TOP [1]: 0.43

aminoethylbenzenesulfonylfluoride
trouase activity inhibition ([2]; 50 μM): not inhibited

CC[C@H](C)[C@H](NC(=O)CCC(=O)O)C(=O)N[C@@H](C)C(=O)N[C@@H](CC(C)C)C(=O)N[C@H]1C[C@H](O[C@H]2C[C@](O)(C(=O)CO)Cc3c(O)c4c(c(O)c32)C(=O)c2c(OC)cccc2C4=O)O[C@@H](C)[C@H]1O [Suc-Ile-Ala-Leu-Dox]
Rate of hydrolysis (F1) (HeLa cell trouase (F1)): 0
Rate of hydrolysis TOP [1]: 0

N-[1-(RS)-carboxypropyl-Ala-Ala-Phe-p-aminobenzoate [Cpp-AAF-pAB]
inhibition of Suc-βAla-Leu-Ala-Leu-Dox hydrolysis [6]: completely inhibited

O=C(O)CN(CCN(CC(=O)O)CC(=O)O)CC(=O)O [EDTA]
trouase activity inhibition ([2]; 1 mM EDTA): 9 fold
